Patent publication US7910363B1, “Lipophilic polyamines providing enhanced intracellular delivery of agents by a polyamine transport system” (University of Central Florida Research Foundation, Inc., priority 2007, dated 2011)

Assays:
CHO K1 cells [1] = type: cell-based; settings: Chinese hamster, 24 h, 0.5 μM
Description: Taking these factors into account, cytotoxicity screens were performed to investigate the relative toxicity of each system. Most materials were relatively non-toxic with IC50 values ≧20 μM. Armed with this insight, cells were treated with ≦6.4 μM of the polyamine conjugate so as to avoid significant toxic effects from the delivery agent itself. Indeed, at this dose ≧90% of cells survived transfection for all compounds except 28. Indeed, compound 28 was very toxic (after 24 h incubation) and even at the lowest dose used for transfection (0.5 μg/mL; 0.5 μM 28) killed 95% of the cells. As such, 28 was too toxic for efficient transfection at the doses surveyed and its data is strongly biased by the few remaining cells, which survived.
(§1) GFP transfection experiments—eGFP encoding DNA plasmid with or without cationic lipid was mixed in F12K and incubated with pre-rinsed, sub-confluent cells in 24-well plates for 4 h, followed by another incubation period of 24 h in growth medium. Cells were then washed with PBS, detached by trypsin treatment, dissolved in PBS, 1% BSA, and analyzed by FACS for GFP expression.

CHO K1 cells [2] = experiment: eGFP DNA plasmid transfection, GFP expression by FACS (FIG. 10, FIG. 11); type: cell-based, Chinese hamster; settings: for % GFP positive cells (transfection efficiency): 5 μg/mL dose
Description: (§2) Medium was then changed, and cells were incubated for another 24 h to allow for GFP plasmid expression; cells were detached by trypsin treatment and analyzed for GFP expression by FACS; Lipofectamine is denoted as LFA; the value obtained with DNA plasmid only was subtracted from each entry above (almost negligible);
In order for the ‘therapy’ to be effective, the DNA must escape from the endosome and enter the cell's nucleus, be transcribed to a regulatory, non coding RNA (RNAi) or to mRNA that is translated into its coded protein. Therefore, we investigated the conjugate-assisted expression of an eGFP DNA plasmid encoding for the green fluorescent protein (GFP). CHO cells, which were successfully transfected, were easily identified by their green fluorescence. Control experiments conducted with only the eGFP DNA plasmid (and no lipid carrier) gave virtually no fluorescence. A gate or instrumental threshold was set based upon this low background fluorescence. Fluorescence detected above this background was considered a positive response.
as §2, with “expression. Cells” for “expression; cells”, “FACS.” for “FACS;”, “LFA. The” for “LFA; the”, “negligible).” for “negligible);”
A gate was set just above the threshold measured with no DNA plasmid and no conjugate added (almost negligible). […] Data are presented as the mean±SD.
as §1

CHO K1 cells [3] = settings: for DNA uptake compared with the lipofectamine control: 0.5, 2.5, 5 μg/mL; for increase in DNA uptake/delivery over diamine 22: FIG. 8, 5 μg/mL dose; for DNA uptake, fluorescence of imported Alexa Fluor-488-DNA: 5 μg/mL cationic lipid (black bars, FIG. 8), 1 μg/mL DNA, 4 h at 37° C.
Description: CHO K1 cells were grown to confluence in 24-well plates, rinsed with medium and incubated for 4 h at 37° C. with 1 μg/mL Alexa Fluor-488-DNA complexed with 0.5 μg/mL (white bars), 2.5 μg/mL (gray bars), or 5 μg/mL (black bars) of the respective cationic lipid, as indicated above each entry; cells were then extensively washed with PBS, treated with trypsin, and cell pellets were again extensively washed with PBS 1% BSA to completely remove non-specific fluorescence from the cell exterior; finally, cells were analyzed for Alexa Fluor-488-DNA uptake by flow cytometry on a FACSCalibur (BD Biosciences) operated by Cell-Quest software.
CHO K1 cells were grown to confluence in 24-well plates, rinsed with medium and incubated for 4 h at 37° C. with 1 μg/mL Alexa Fluor-488-DNA complexed with 0.5 μg/mL (white bars), 2.5 μg/mL (grey bars), or 5 μg/mL (black bars) of the respective cationic lipid, as indicated above each entry. Cells were then extensively washed with PBS, treated with trypsin, and cell pellets were again extensively washed with PBS 1% BSA to completely remove non-specific fluorescence from the cell exterior. Finally, cells were analyzed for Alexa Fluor-488-DNA uptake by flow cytometry on a FACSCalibur (BD Biosciences) operated by Cell-Quest software.
A gate was set just above the threshold signal for control cells (DNA only with no lipid conjugate). […] Data are presented as the mean±SD.
AlexaFluor-488 labeled DNA with or without cationic lipid was mixed in serum-free F12K and added to extensively rinsed cells grown in 24-well plates. Cells were then incubated for 4 h at 37° C. After removal of the incubation medium and rinsing with PBS, cells were detached with trypsin followed by extensive washing with ice-cold PBS, 1% (w/v) bovine serum albumin (BSA) to remove non-specific fluorescence. Finally, cells were suspended in PBS, 1% BSA and analyzed for DNA uptake by flow cytometry on a FACSCalibur (BD Biosciences) operated by Cell-Quest software.

[4] = system: polyamine transporter, PAT; experiment: [14C]Spermine uptake inhibition (competition assay) in CHO-K1 cells (FIG. 12); type: cell-based, Chinese hamster
Excerpt: We theorized that 26 may be using the polyamine transporter, PAT, for cellular entry. […] This observation implied that 26 was able to compete for the polyamine recognition sites on the cell surface (e.g., PAT). Therefore, it is possible that certain lipophilic polyamines, which present the correct polyamine ‘message’, may be able to recognize and target cells expressing high levels of polyamine transporters on their cell surface (e.g., cancer cells, rapidly dividing tumors, etc.). However, as shown in this report, delivery into the cell is just one step in successful gene transfection. Nevertheless, the findings disclosed herein are an important first step in developing ‘smart’ transfection agents.

[5] = system: DU145 human prostate cancer cells; experiment: Lipopolyamine-induced sensitization to FGF-saporin intoxication, DU145; type: cell-based
Description: (§3) We have also documented lipopolyamine-induced toxin sensitization with two other saporin-based toxins: (i) FGF-saporin, a chemical conjugate between fibroblast growth factor and saporin; and (ii) the OKT10 immunotoxin which consists of a chemical conjugate between saporin and an antibody that recognizes the CD38 cancer antigen. DU145 human prostate cancer cells exposed to lipopolyamine 26 and FGF-saporin were 85-fold more sensitive to intoxication than cells incubated with FGF-saporin alone. […] We have also shown that Ramos human leukemia cells exposed to lipopolyamine 26 and OKT10 are 100-fold more sensitive to intoxication than cells incubated with OKT10 alone.

HeLa cells [6] = experiment: Sensitization to FGF-saporin intoxication in non-target HeLa cells; type: cell-based; settings: which do not express the FGF receptor
[7] = system: Ramos human leukemia cells; experiment: Sensitization to OKT10 immunotoxin intoxication, Ramos; type: cell-based
Description: as §3

HeLa cells [8] = settings: cited from earlier work

Compound	% GFP positive cells (transfection efficiency) (CHO K1 cells [2]; FIG. 11)	DNA uptake compared with the lipofectamine control (CHO K1 cells [3]; FIG. 8)	increase in DNA uptake/delivery over diamine 22 (CHO K1 cells [3])	DNA uptake, fluorescence of imported Alexa Fluor-488-DNA (CHO K1 cells [3])	GFP expression/cell (CHO K1 cells [2]; 5 μg/mL, FIG. 10)	other results
CCCCCCCCC=CCCCCCCCCOc1ccc(C(=O)NCCCCNCCCCNCCCCN)cc1OCCCCCCCCC=CCCCCCCCC.Cl.Cl.Cl [Compound 28, N-{4-[4-(4-Amino-butylamino)-butylamino]-butyl}-3,4-bis-octadec-9-enyloxy-benzamide, trihydrochloride salt]						cells killed (CHO K1 cells [1]): 95%
CCCCCCCCC=CCCCCCCCCOc1ccc(C(=O)NCCCCNCCCCN)cc1OCCCCCCCCC=CCCCCCCCC.Cl.Cl [Compound 27, N-[4-(4-Amino-butylamino)-butyl]-3,4-bis-octadec-9-enyloxy-benzamide, dihydrochloride salt]	40%	better	greater than 4 fold			transfection efficiency compared with 22 (CHO K1 cells [2]; FIG. 11): nearly identical transfection efficiency; DNA delivery compared with 22 (CHO K1 cells [3]; FIG. 8): more efficient DNA delivery agent than 22
CCCCCCCCC=CCCCCCCCCOc1ccc(CNCCCCN)cc1OCCCCCCCCC=CCCCCCCCC.Cl.Cl [Compound 22, N^1-(3,4-Bis-octadec-9-enyloxy-benzyl)-butane-1,4-diamine, dihydrochloride salt]	38%			94 a.u.		
CCCCCCCCC=CCCCCCCCCOc1ccc(CNCCCCNCCCCNCCCCN)cc1OCCCCCCCCC=CCCCCCCCC.Cl.Cl.Cl.Cl [Compound 26, N-[4-(4-Amino-butylamino)-butyl]-N′-(3,4-bis-octadec-9-enyloxy-benzyl)-butane-1,4-diamine, tetrahydrochloride salt]	67%	better	> 5 fold	504 a.u.	25 a.u.	higher transfection efficiency than the LFA control (CHO K1 cells [2]; 5 μg/mL, FIG. 11): over 50%; relative GFP expression/cell versus LFA (CHO K1 cells [2]; FIG. 10): two fold higher; % of GFP positive cells relative to LFA (CHO K1 cells [2]; FIG. 11): 1.5 fold; IC50 ([4]; 1 μM [14C]spermine, 20 min, serum free medium, CHO-K1): ~10 µM; polyamine uptake inhibition ([4]; FIG. 12 legend): efficient inhibitor of polyamine uptake; sensitivity to FGF-saporin intoxication versus FGF-saporin alone [5]: 85 fold; sensitization of non-target cells to FGF-saporin (HeLa cells [6]): no more sensitive to intoxication; sensitivity to OKT10 intoxication versus OKT10 alone [7]: 100 fold; DNA delivered to the cell relative to control LFA (CHO K1 cells [3]; black bars in FIG. 8, 5 μg/mL): 3 fold
CCCCCCCCC=CCCCCCCCCOc1ccc(CNCCCCNCCCCN)cc1OCCCCCCCCC=CCCCCCCCC.Cl.Cl.Cl [Compound 25, N-(4-Amino-butyl)-N′-(3,4-bis-octadec-9-enyloxy-benzyl)-butane-1,4-diamine, tri hydrochloride salt]	49%	as good	3 fold	281 a.u.		transfection efficiency compared with 22 (CHO K1 cells [2]; FIG. 11): only slightly higher transfection efficiency than 22; DNA delivery compared with 22 (CHO K1 cells [3]; FIG. 8): three-fold increase
CCCCCCCCC=CCCCCCCCCOc1ccc(CNCCOCCOCCN)cc1OCCCCCCCCC=CCCCCCCCC.Cl.Cl [Compound 24, 2-{2-[2-(3,4-Bis-octadec-9-enyloxy-benzylamino)-ethoxy]-ethoxy}-ethylamine, dihydrochloride salt]	25%	as good			7 a.u.	DNA delivery (DNA probe fluorescence) of polyether eight-atom spacer versus octanediamine analogue (CHO K1 cells [3]; FIG. 8): nearly doubled
CCCCCCCCCCCCCCCCCCN(CCCCCCCCCCCCCCCCCC)C(=O)CNC(=O)CNCCCNCCCCNCCCN [RPR 120535]						more effective at transfection than branched-, globular- or T-shaped polar domains (HeLa cells [8]): 5-10 times
CCCCCCCCC=CCCCCCCCCOc1ccc(CNCCCCCCCCN)cc1OCCCCCCCCC=CCCCCCCCC.Cl.Cl [Compound 23, N^1-(3,4-Bis-octadec-9-enyloxy-benzyl)-octane-1,8-diamine, dihydrochloride salt]	23%				5 a.u.	positive cells of the total cell population after DNA uptake experiment (CHO K1 cells [3]; 5 μg/mL, black bars in FIG. 9, gated): 84%
